From patent publication US9474730B2, “Methods and compositions for use with K-ras mediated disorders” (Board of Regents of the University of Texas System, priority 2012, dated 2016)
Structures can show the parent of a compound that is named as a salt.

What was measured:
[1] = target: T1, GFP-K-rasG12V in MDCK or BHK cells (Homo sapiens, UniProt P01116, G12V); assay: Cellular fractionation (P100/S100) with quantitative Western blotting, GFP-K-rasG12V; assay type: cell-based, canine (MDCK), hamster (BHK); conditions: 4 μg/mL for MDCK and 6 μg/mL for BHK, 48 hours, vs vehicle
T1 construct: MDCK and BHK cells expressing GFP-tagged full length constitutively active Ras (G12V) proteins; expressed in transfected cells
Protocol: Following treatment, membrane (P100) and soluble (S100) protein fractions were prepared and analyzed by quantitative Western blotting.
(§1) Preparation of whole-cell lysates: cells were lysed in Buffer B (50 mM Tris [pH 7.5], 75 mM NaCl, 25 mM NaF, 5 mM MgCl2, 5 mM EGTA, 1 mM dithiothreitol, 100 μM NaVO4, 1% Nonidet P-40 plus protease inhibitors). Cellular fractionation: cells were incubated in Buffer A (10 mm Tris-HCl, pH 7.5, 25 mm NaF, 5 mm MgCl2, 1 mm EGTA, 1 mm dithiothreitol, 100 μm NaVO4 plus protease inhibitors) for 30 minutes on ice and lysed by passing through a 27 G needle 30 times. The post nuclear supernatant was centrifuged at 100,000 g for 30 minutes and the membrane pellet was resuspended in Buffer A containing 1% Triton X-100.
SDS-PAGE and Western blotting with the specified antibody were performed using 20 μg of each whole cell lysate/P100 fraction and volumes of S100 equal to that of the corresponding P100. Signal was detected by enhanced chemiluminescence (SuperSignal; Pierce, Thermo Fisher Scientific, Rockford, Ill.) and imaged by FluorChemQ (Alpha Inotech, San Leandro, Calif., USA). Quantification of intensities was performed using FluorChemQ software.

[2] = target: T2, mGFP-tagged H-rasG12V in BHK cells (Homo sapiens, UniProt P01112, G12V); assay: Immuno-electron microscopy and spatial analysis of plasma membrane sheets, H-rasG12V; assay type: cell-based, hamster; conditions: 6 μg/mL, 48 h
T2 construct: BHK cells expressing GFP-tagged full length constitutively active Ras (G12V) proteins; expressed in transfected cells
Protocol: FIG. 4: Illustrates that fendiline HCl alters plasma membrane association and nanoclustering of K-ras: Plasma membrane sheets were generated from cells expressing GFP-K-rasG12V or GFP-H-rasG12V. Cells were treated with vehicle or fendiline HCl (6 μg/mL) for 48 h. Plasma membrane sheets were labeled with anti-GFP antibody conjugated to 4.5 nm gold. The plasma membrane sheets were imaged in an electron microscope and the spatial distribution of the gold labeling was analyzed using Ripley's K-function. Maximum L(r)-r values above the 99% confidence interval (C.I.) for complete spatial randomness (CSR) indicate clustering at that value of r. […] Significant differences from the control pattern for fendiline treated cells were assessed using bootstrap tests, wherein experimentation was performed in accordance with principles described herein;
Immuno-EM and spatial analysis were conducted exactly as described previously (Hancock, J. F., and Prior, I. A. (2005). Electron microscopic imaging of Ras signaling domains. Methods 37, 165-172; Prior, I. A., Muncke, C., Parton, R. G., and Hancock, J. F. (2003). Direct visualization of Ras proteins in spatially distinct cell surface microdomains. J Cell Biol 160, 165-170). […] Intact 1-μm^2 areas of the plasma membrane sheet were identified using ImageJ, and the x-y coordinates of the gold particles were determined. […]

[3] = system: MDCK and BHK cells expressing oncogenic mutant H-RasG12V; assay: Signaling in cells expressing oncogenic H-RasG12V, Western blotting; assay type: cell-based, canine (MDCK), hamster (BHK); conditions: to the similar extent as in K-rasG12V cells, 6 μg/mL, 48 h
Protocol: FIG. 7: Illustrates that H-rasG12V signals through endogenous K-ras: BHK cells stably expressing H-rasG12V were treated with vehicle or fendiline HCl (6 μg/mL) for 48 h. (A) ppMEK and ppERK in soluble protein fraction and pAkt levels in membrane protein fraction were measured by quantitative Western blotting. A representative blots are shown. (B) BHK cells stably expressing H-rasG12V were transfected with K-ras siRNA encoding plasmid. 24 h after transfection, cells were treated with vehicle or fendiline HCl (6 μg/mL) for a further 48 h. Whole cell lysates were prepared from serum starved cells and analyzed by quantitative Western blotting. Representative Western blots are shown. Data is shown as mean±SEM from 6 independent experiments. […] (*=p<0.05), and experimentation was performed in accordance with principles described herein;
as §1
(§2) Quantification of intensities was performed using FluorChemQ software.

[4] = system: BHK cells expressing Myc-B-Raf V600E; assay: Signaling in cells expressing constitutively active BRaf, Western blotting; assay type: cell-based, hamster; conditions: 6 μg/mL, 48 h, serum starved BHK cells
Protocol: (§3) FIG. 6: Illustrates that fendiline HCl inhibition occurs at the level of Ras: Whole cell lysates from serum starved BHK cells expressing vector control, FLAG-C-Raf-DD-CAAX or Myc-B-Raf V600E treated with vehicle or fendiline HCl (6 μg/mL) for 48 h were analyzed by quantitative Western blotting. Representative Western blots of c-Raf, pMEK, pERK and Actin (loading control) are shown. Data is shown as mean±SEM from 3-4 independent experiments. Statistical significance was calculated using one way ANOVA and Student's T-test. (*=p<0.05), wherein experimentation was performed in accordance with principles described herein;
as §1, §2

[5] = system: BHK cells expressing constitutively active CRaf (FLAG-C-Raf-DD-CAAX); assay: Signaling in cells expressing constitutively active CRaf, Western blotting; assay type: cell-based, hamster; conditions: 6 μg/mL, 48 h, serum starved BHK cells
Protocol: as §3, §1, §2

## CC(NCCC(c1ccccc1)c1ccccc1)c1ccccc1 (centres unmarked) [fendiline HCl]
[1]
  soluble fraction of GFP-K-rasG12V: increases the soluble fraction of GFP-K-rasG12V
[2]
  clustering of H-rasG12V on plasma membrane: reduced clustering of both K- and H-rasG12V proteins
  membrane association of H-rasG12V (EM gold labeling): slightly increases membrane association of H-rasG12V
[3]
  pAkt levels: decreased
  pERK levels: decreased
  pMEK levels: decreased
[4]
  signaling downstream of constitutively active BRaf: inhibited signaling downstream of constitutively active BRaf
[5]
  signaling downstream of constitutively active CRaf: had no effect on signaling downstream of constitutively active CRaf
